This test deals with T1, ferroportin (Homo sapiens, UniProt Q9NP59).
T1 sequence (Q9NP59 1-571): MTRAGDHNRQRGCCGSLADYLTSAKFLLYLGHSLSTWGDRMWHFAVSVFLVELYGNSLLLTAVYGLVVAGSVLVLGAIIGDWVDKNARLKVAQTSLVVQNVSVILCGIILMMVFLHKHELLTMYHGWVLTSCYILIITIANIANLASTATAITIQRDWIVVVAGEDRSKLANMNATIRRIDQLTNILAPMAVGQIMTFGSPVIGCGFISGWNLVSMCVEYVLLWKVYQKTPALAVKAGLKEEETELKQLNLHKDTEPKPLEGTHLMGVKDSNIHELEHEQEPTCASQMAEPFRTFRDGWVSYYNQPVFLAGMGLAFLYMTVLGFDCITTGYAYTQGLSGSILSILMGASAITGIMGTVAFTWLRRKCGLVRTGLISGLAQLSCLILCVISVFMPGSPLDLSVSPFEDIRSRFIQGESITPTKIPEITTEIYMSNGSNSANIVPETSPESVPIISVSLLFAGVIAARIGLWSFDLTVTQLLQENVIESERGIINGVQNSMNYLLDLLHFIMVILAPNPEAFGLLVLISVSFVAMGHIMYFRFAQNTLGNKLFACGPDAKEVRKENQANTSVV
Put plainly: FPN activity assay: ferroportin-GFP internalization/degradation in HEK293 cells. Type of test: cell-based. The following applies: read-out: FPN IC50. Also on record: expressed in transfected cells. Here is the method: Following internalization, the ferroporin protein is degraded.
A retro inverse peptide is a peptide with a reversed sequence in all D amino acids. An example is that Hy-Glu-Thr-His-NH2 becomes Hy-DHis-DThr-DGlu-NH2. The EC50 of these reference compounds for ferroportin internalization/degradation was determined according to the FPN activity assay described above. These peptides served as control standards.

Where [1] appears, read: Table 6E, ferroportin-GFP internalization/degradation, at least 18 hours incubation.
The mark [2] stands for this setting: ferroportin-GFP internalization/degradation, HEK293 cells, Table 6E.
Where [3] appears, read: ferroportin-GFP HEK293 cells, at least 18 hours.

Experimental findings from US20250277012A1 (Protagonist Therapeutics, Inc., priority 2021, published 2025) are described below.

Molecules are shown by their SMILES. Where two headings read alike, the source gives them in different places. Starred links: 1 amine or outer side, 2 acyl side, 3 side chain; linkers in the order of their positions; H or OH if unused. Positions of bridges follow the written chain, without caps; N, C: chain ends. Non-standard residues stand in square brackets, D forms with d. Residues, ends and D or L forms follow the SMILES beside them. Groups on a side chain read outwards from the residue. *: point of attachment. X1 = C[N+](C)(CCNC(=O)CCCCCCCCCCCCCCCCC(=O)O)CC(=O)*; Phe(4-CF3) = N[C@@H](Cc1ccc(C(F)(F)F)cc1)C(=O)O; Bip = N[C@@H](Cc1ccc(-c2ccccc2)cc1)C(=O)O; C18 diacid = O=C(O)CCCCCCCCCCCCCCCCC(=O)*; dDip = N[C@@H](C(=O)O)C(c1ccccc1)c1ccccc1; Lys(Me3) = C[N+](C)(C)CCCC[C@H](N)C(=O)O; Dip = N[C@H](C(=O)O)C(c1ccccc1)c1ccccc1; γGlu = O=C(O)[C@H](CCC(=O)[*:2])N[*:1]; Pro(3R-OH) = O=C(O)[C@H]1NCC[C@H]1O; Palmitoyl = CCCCCCCCCCCCCCCC(=O)*; NMeF = CN[C@@H](Cc1ccccc1)C(=O)O; NMeT = CN[C@H](C(=O)O)[C@@H](C)O; β3hF = N[C@H](CC(=O)O)Cc1ccccc1; NMeK = CN[C@@H](CCCCN)C(=O)O; Isovaleryl = CC(C)CC(=O)*; NMeC = CN[C@@H](CS)C(=O)O; hCys = N[C@@H](CCS)C(=O)O; Dap = NC[C@H](N)C(=O)O; AEEA = NCCOCCOCC(=O)O; Ahx = NCCCCCC(=O)O Where only a bound is given, the exact number is not on record here.

As to `CCCCCCCCCCCCCCCC(=O)NCCCCCC(=O)NCCCC[C@@H](C(=O)N[C@H](C(=O)N[C@H](CCCCN)C(N)=O)C(c1ccccc1)c1ccccc1)N(C)C(=O)[C@@H]1CSSC[C@H](NC(=O)[C@@H]2CCCN2C(=O)[C@@H](NC(=O)[C@H](Cc2c[nH]cn2)NC(=O)[C@@H]2[C@H](O)CCN2C(=O)[C@H](CCC(=O)O)NC(=O)CC(C)C)C(c2ccccc2)c2ccccc2)C(=O)N1` [compound 174] (Isovaleryl-E[Pro(3R-OH)]H[Dip]PCC[NMeK]([Ahx-Palmitoyl])[Dip][dK]-NH2; disulfide 6-7), the DC50 under setting [1] was in the range of 0.01 to 0.1 µM. `CC(C)CC(=O)N[C@@H](CCC(=O)O)C(=O)N[C@H](C(=O)N[C@@H](Cc1c[nH]cn1)C(=O)N[C@H](C(=O)N1CCC[C@H]1C(=O)N[C@H]1CSSC[C@@H](C(=O)N(C)[C@@H](CCCCNC(=O)COCCOCCNC(=O)COCCOCCNC(=O)[C@H](CN)NC(=O)CCCCCCCCCCCCCCCCC(=O)O)C(=O)N(C)[C@@H](Cc2ccccc2)C(=O)N[C@H](CCCCN)C(N)=O)N(C)C1=O)C(c1ccccc1)c1ccccc1)[C@@H](C)O` [compound 281] (Isovaleryl-ETH[Dip]PC[NMeC][NMeK]([AEEA-AEEA-Dap-C18 diacid])[NMeF][dK]-NH2; disulfide 6-7): the DC50 under setting [2] fell in the range of 0.1 to 0.5 µM. As to `CC(C)CC(=O)N[C@@H](CCC(=O)O)C(=O)N[C@H](C(=O)N[C@@H](Cc1c[nH]cn1)C(=O)N[C@H](C(=O)N1CCC[C@H]1C(=O)N[C@H]1CSSC[C@@H](C(=O)N[C@@H](CCCC[N+](C)(C)C)C(=O)N[C@H](C(N)=O)C(c2ccccc2)c2ccccc2)NC1=O)C(c1ccccc1)c1ccccc1)[C@@H](C)O` [compound 141] (Isovaleryl-ETH[Dip]PCC[Lys(Me3)][Dip]-NH2; disulfide 6-7), under setting [1], the DC50 was 0.01 to 0.1 µM. With `COC(=O)CC[C@H](NC(=O)CC(C)C)C(=O)N(C)[C@H](C(=O)N[C@@H](Cc1c[nH]cn1)C(=O)N[C@H](C(=O)N1CCC[C@H]1C(=O)N[C@H]1CSSC[C@@H](C(=O)N(C)[C@@H](Cc2ccccc2)C(N)=O)NC1=O)C(c1ccccc1)c1ccccc1)[C@@H](C)O` [compound 184] (Isovaleryl-E(OMe)[NMeT]H[Dip]PCC[NMeF]-NH2; disulfide 6-7), under setting [1], the DC50 was greater than 0.5 µM.

Consider `CC[C@H](C)[C@H](NC(=O)[C@@H]1CSSC[C@H](NC(=O)[C@H](Cc2c[nH]cn2)NC(=O)[C@@H](NC(=O)[C@H](CCC(=O)O)NC(=O)CC(C)C)[C@@H](C)O)C(=O)N2CCC[C@H]2C(=O)N1)C(=O)N[C@@H](CCCCNC(=O)COCCOCCNC(=O)COCCOCCNC(=O)CC[C@H](NC(=O)CCCCCCCCCCCCCCCCC(=O)O)C(=O)O)C(=O)N[C@H](CC(=O)N[C@H](CCCCN)C(N)=O)Cc1ccccc1` [Compd 29] (Isovaleryl-ETHCPCIK([AEEA-AEEA-γGlu-C18 diacid])[β3hF][dK]-NH2; disulfide 4-6), for which, under setting [3], the DC50 lay in the range of 0.1 to 0.5 µM. Consider `COC(=O)CC[C@H](NC(=O)CC(C)C)C(=O)N(C)[C@H](C(=O)N[C@@H](Cc1c[nH]cn1)C(=O)N[C@H](C(=O)N1CCC[C@H]1C(=O)N[C@H]1CSSC[C@@H](C(=O)N(C)[C@@H](CCCCNC(=O)C[N+](C)(C)CCNC(=O)CCCCCCCCCCCCCCCCC(=O)O)C(=O)N(C)[C@@H](Cc2ccccc2)C(N)=O)NC1=O)C(c1ccccc1)c1ccccc1)[C@@H](C)O` [compound 185] (Isovaleryl-E(OMe)[NMeT]H[Dip]PCC[NMeK](X1)[NMeF]-NH2; disulfide 6-7), for which, under setting [1], the DC50 is greater than 0.5 µM.

For `CC(C)CC(=O)N[C@@H](CCC(=O)O)C(=O)N[C@H](C(=O)N[C@@H](Cc1c[nH]cn1)C(=O)N[C@H](C(=O)N1CCC[C@H]1C(=O)N[C@H]1CSSC[C@@H](C(=O)N(C)[C@@H](CCCCNC(=O)COCCOCCNC(=O)COCCOCCNC(=O)[C@H](CN)NC(=O)CCCCCCCCCCCCCCCCC(=O)O)C(=O)N(C)[C@@H](Cc2ccccc2)C(=O)N(C)[C@@H](CCCCN)C(N)=O)N(C)C1=O)C(c1ccccc1)c1ccccc1)[C@@H](C)O` [compound 277] (Isovaleryl-ETH[Dip]PC[NMeC][NMeK]([AEEA-AEEA-Dap-C18 diacid])[NMeF][NMeK]-NH2; disulfide 6-7), the DC50 under setting [2] was in the range of 0.01 to 0.1 µM. As for `CC(C)CC(=O)N[C@@H](CCC(=O)O)C(=O)N[C@H](C(=O)N[C@@H](Cc1c[nH]cn1)C(=O)N[C@H](C(=O)N1CCC[C@H]1C(=O)N[C@H]1CSSC[C@@H](C(=O)N[C@@H](CCCC[N+](C)(C)C)C(=O)N[C@@H](C(N)=O)C(c2ccccc2)c2ccccc2)NC1=O)C(c1ccccc1)c1ccccc1)[C@@H](C)O` [compound 140] (Isovaleryl-ETH[Dip]PCC[Lys(Me3)][dDip]-NH2; disulfide 6-7), the DC50 under setting [1] lay in the range of 0.01 to 0.1 µM.

With `CC(C)CC(=O)N[C@@H](CCC(=O)O)C(=O)N[C@H](C(=O)N[C@@H](Cc1ccc(C(F)(F)F)cc1)C(=O)N[C@H](C(=O)N1CCC[C@H]1C(=O)N[C@H]1CSSC[C@@H](C(=O)N(C)[C@@H](CCCCNC(=O)COCCOCCNC(=O)COCCOCCNC(=O)[C@H](CN)NC(=O)CCCCCCCCCCCCCCCCC(=O)O)C(=O)N[C@H](CC(=O)N[C@H](CCCCN)C(N)=O)Cc2ccccc2)NC1=O)C(c1ccccc1)c1ccccc1)[C@@H](C)O` [compound 286] (Isovaleryl-ET[Phe(4-CF3)][Dip]PCC[NMeK]([AEEA-AEEA-Dap-C18 diacid])[β3hF][dK]-NH2; disulfide 6-7), under setting [2], the DC50 lay in the range of 0.1 to 0.5 µM.

Turning to `CCCCCCCCCCCCCCCC(=O)NCCCCCC(=O)NCCCC[C@H](NC(=O)[C@@H](NC(=O)[C@@H]1CCSSCC[C@H](NC(C)=O)C(=O)N[C@@H](CCC(=O)O)C(=O)N[C@@H]([C@@H](C)O)C(=O)N[C@@H](Cc2c[nH]cn2)C(=O)N[C@@H](C(c2ccccc2)c2ccccc2)C(=O)N2CCC[C@H]2C(=O)N1)[C@@H](C)CC)C(=O)N[C@H](CC(N)=O)Cc1ccccc1` [Compd 14] (Ac-[hCys]ETH[Dip]P[hCys]IK([Ahx-Palmitoyl])[β3hF]-NH2; disulfide 1-7), under setting [3], the DC50 lay within 0.1 to 0.5 µM.

Turning to `CCCCCCCCCCCCCCCC(=O)NCCCCCC(=O)NCCCC[C@H](NC(=O)C[C@H](Cc1ccccc1)NC(=O)[C@@H](CCCCN)NC(=O)[C@@H](NC(=O)[C@H](C)NC(=O)[C@H]1CSSC[C@H](NC(=O)[C@H](CCC(=O)O)NC(=O)CC(C)C)C(=O)N[C@@H](Cc2c[nH]cn2)C(=O)N[C@@H](C(c2ccccc2)c2ccccc2)C(=O)N1)[C@@H](C)CC)C(=O)N[C@H](CCCCN)C(=O)N[C@@H](C)C(N)=O` [Compd 46] (Isovaleryl-ECH[Dip][dC]AI[dK][β3hF]K([Ahx-Palmitoyl])[dK]A-NH2; disulfide 2-5), under setting [3], the DC50 was 0.001 to 0.01 µM. Take `CCCCCCCCCCCCCCCC(=O)NCCCCCC(=O)NCCCC[C@H](NC(=O)C[C@H](Cc1ccccc1)NC(=O)[C@H]1CSSC[C@@H](NC(=O)CC(C)C)C(=O)N[C@@H]([C@@H](C)O)C(=O)N[C@@H](Cc2c[nH]cn2)C(=O)N[C@@H](C(c2ccccc2)c2ccccc2)C(=O)N2CCC[C@H]2C(=O)N[C@@H](C)C(=O)N[C@@H]([C@@H](C)CC)C(=O)N1)C(=O)N[C@H](CCCCN)C(N)=O` [compound 105] (Isovaleryl-[dC]TH[Dip]PAI[dC][β3hF]K([Ahx-Palmitoyl])[dK]-NH2; disulfide 1-8): under setting [3], the DC50 was in the range of 0.01 to 0.1 µM.

In the case of `CCCCCCCCCCCCCCCC(=O)NCC[N+](C)(C)CC(=O)NCCCC[C@H](NC(=O)[C@@H]1CSSC[C@H](NC(=O)[C@H](CCC(=O)O)NC(=O)CC(C)C)C(=O)N[C@@H](Cc2c[nH]cn2)C(=O)N[C@@H](C(c2ccccc2)c2ccccc2)C(=O)N1)C(=O)NCCCCC` [compound 124], the DC50 (Table 6D, ferroportin-GFP internalization/degradation, at least 18 hours incubation) lay in the range of 0.1 to 0.5 µM. For `CC[C@H](C)[C@H](NC(=O)[C@@H]1CSSC[C@H](NC(=O)[C@@H](NC(=O)[C@H](Cc2c[nH]cn2)NC(=O)[C@@H](NC(=O)[C@H](CCC(=O)O)NC(=O)CC(C)C)[C@@H](C)O)C(c2ccccc2)c2ccccc2)C(=O)N1)C(=O)N[C@H](CCCCN)C(=O)N[C@H](CC(=O)N[C@@H](CCCCNC(=O)COCCOCCNC(=O)COCCOCCNC(=O)CCCCCNC(=O)CCCCCCCCCCCCCCCCC(=O)O)C(=O)N[C@H](CCCCN)C(N)=O)Cc1ccccc1` [Compd 25] (Isovaleryl-ETH[Dip]CCI[dK][β3hF]K([AEEA-AEEA-Ahx-C18 diacid])[dK]-NH2; disulfide 5-6), the DC50 under setting [3] is 0.1 to 0.5 µM. With `CC(C)CC(=O)N[C@@H](CCC(=O)O)C(=O)N[C@H](C(=O)N[C@@H](Cc1ccc(-c2ccccc2)cc1)C(=O)N[C@H](C(=O)N1CCC[C@H]1C(=O)N[C@H]1CSSC[C@@H](C(=O)N(C)[C@@H](CCCCNC(=O)COCCOCCNC(=O)COCCOCCNC(=O)[C@H](CN)NC(=O)CCCCCCCCCCCCCCCCC(=O)O)C(=O)N[C@H](CC(=O)N[C@H](CCCCN)C(N)=O)Cc2ccccc2)NC1=O)C(c1ccccc1)c1ccccc1)[C@@H](C)O` [compound 297] (Isovaleryl-ET[Bip][Dip]PCC[NMeK]([AEEA-AEEA-Dap-C18 diacid])[β3hF][dK]-NH2; disulfide 6-7), the DC50 under setting [2] was greater than 0.5 µM.
